Data as given in publication PMC8371902, “Phase 1 study of M2698, a p70S6K/AKT dual inhibitor, in patients with advanced cancer” (Journal of Hematology & Oncology, 2021).

Legend:
[1] = Monotherapy population PK model (two-compartment); conditions: in vivo
Description: A monotherapy population PK model was developed, consisting of a two-compartment model with four absorption transit compartments and first-order elimination (Additional file 1: Table S5).

pS6 in tumor tissue = tested on: pS6 in tumor tissue; design: method as in PMID 27186432; conditions: preclinical ref 21; cited from earlier work
[2] = tested on: advanced metastatic cancer; experiment: Antitumor activity: tumor response (RECIST 1.1) and progression-free survival; assay type: in vivo, human
Method: Tumor response was assessed using RECIST 1.1. As for drugs with cytostatic antitumor activity, disease control rate was defined as the sum of stable disease (SD) and objective response rates; SD was considered clinically beneficial. Progression-free survival (PFS) was measured from treatment initiation until disease progression or death and was estimated using the Kaplan–Meier method.

[3] = All patients, M2698 monotherapy 15 mg, N=3
[4] = All patients, M2698 monotherapy 30 mg, N=3
[5] = All patients, M2698 monotherapy 60 mg, N=6
[6] = All patients, M2698 monotherapy 75 mg, N=4
[7] = All patients, M2698 monotherapy 110 mg, N=4
[8] = All patients, M2698 monotherapy 160 mg, N=6
[9] = All patients, M2698 monotherapy 200 mg, N=3
[10] = All patients, M2698 monotherapy 240 mg, N=17
[11] = All patients, M2698 monotherapy 320 mg, N=12
[12] = All patients, M2698 monotherapy 380 mg, N=4
[13] = All patients, M2698 monotherapy, Total of all dose levels, N=62
[14] = PAM+ patients with confounding markers, M2698 monotherapy 15 mg, N=1
[15] = PAM+ patients with confounding markers, M2698 monotherapy 60 mg, N=2
[16] = PAM+ patients with confounding markers, M2698 monotherapy 75 mg, N=1
[17] = PAM+ patients with confounding markers, M2698 monotherapy 110 mg, N=1
[18] = PAM+ patients with confounding markers, M2698 monotherapy 160 mg, N=2
[19] = PAM+ patients with confounding markers, M2698 monotherapy, Total of all dose levels, N=7
[20] = PAM+ patients without confounding markers, M2698 monotherapy 15 mg, N=2
[21] = PAM+ patients without confounding markers, M2698 monotherapy 30 mg, N=2
[22] = PAM+ patients without confounding markers, M2698 monotherapy 60 mg, N=2
[23] = PAM+ patients without confounding markers, M2698 monotherapy 75 mg, N=1

NC(=O)c1cccc2c(N[C@H](CN3CCC3)c3ccc(Cl)c(C(F)(F)F)c3)ncnc12 [M2698]
ALB on Vc, population PK estimate [1]: 0.0247
BSA on Vc, population PK estimate [1]: 1.17
CL (clearance), population PK estimate [1]: 7.06 L/h
KA (absorption rate constant), population PK estimate [1]: 2.02 h⁻¹
Q (flow rate), population PK estimate [1]: 18.0 L/h
Vc (volume of distribution of the central compartment), population PK estimate [1]: 292 L
Vp (volume of distribution of the peripheral compartment), population PK estimate [1]: 53.0 L
Inhibition of pS6 in tumor tissue (pS6 in tumor tissue): dose-dependently inhibits pS6 in tumor tissue
Patients with stable disease ([2]; 54 PAM+ patients, monotherapy): 40.7%
Median PFS [2, 3]: 4.1 months
Response, NE [2, 3]: 0 (0.0) n (%)
Response, PD [2, 3]: 1 (33.3) n (%)
Response, SD at wk 6 [2, 3]: 2 (66.7) n (%)
Median PFS [2, 4]: 4.1 months
Response, NE [2, 4]: 0 (0.0) n (%)
Response, PD [2, 4]: 0 (0.0) n (%)
Response, SD at wk 6 [2, 4]: 3 (100) n (%)
Median PFS [2, 5]: 1.4 months
Response, NE [2, 5]: 1 (16.7) n (%)
Response, PD [2, 5]: 4 (66.7) n (%)
Response, SD at wk 6 [2, 5]: 1 (16.7) n (%)
Median PFS [2, 6]: 1.4 months
Response, NE [2, 6]: 0 (0.0) n (%)
Response, PD [2, 6]: 3 (75.0) n (%)
Response, SD at wk 6 [2, 6]: 1 (25.0) n (%)
Median PFS [2, 7]: 1.3 months
Response, NE [2, 7]: 1 (25.0) n (%)
Response, PD [2, 7]: 2 (50.0) n (%)
Response, SD at wk 6 [2, 7]: 1 (25.0) n (%)
Median PFS [2, 8]: 1.6 months
Response, NE [2, 8]: 0 (0.0) n (%)
Response, PD [2, 8]: 4 (66.7) n (%)
Response, SD at wk 6 [2, 8]: 2 (33.3) n (%)
Median PFS [2, 9]: 4.1 months
Response, NE [2, 9]: 0 (0.0) n (%)
Response, PD [2, 9]: 1 (33.3) n (%)
Response, SD at wk 6 [2, 9]: 2 (66.7) n (%)
Median PFS [2, 10]: 2.0 months
Response, NE [2, 10]: 3 (17.6) n (%)
Response, PD [2, 10]: 8 (47.1) n (%)
Response, SD at wk 6 [2, 10]: 6 (35.3) n (%)
Median PFS [2, 11]: 2.8 months
Response, NE [2, 11]: 2 (16.7) n (%)
Response, PD [2, 11]: 5 (41.7) n (%)
Response, SD at wk 6 [2, 11]: 5 (41.7) n (%)
Median PFS [2, 12]: 6.2 months
Response, NE [2, 12]: 2 (50.0) n (%)
Response, PD [2, 12]: 0 (0.0) n (%)
Response, SD at wk 6 [2, 12]: 2 (50.0) n (%)
Median PFS [2, 13]: 2.3 months
Response, NE [2, 13]: 9 (14.5) n (%)
Response, PD [2, 13]: 28 (45.2) n (%)
Response, SD at wk 6 [2, 13]: 25 (40.3) n (%)
Response, NE [2, 14]: 0 (0.0) n (%)
Response, PD [2, 14]: 0 (0.0) n (%)
Median PFS [2, 15]: 1.4 months
Response, NE [2, 15]: 1 (50.0) n (%)
Response, PD [2, 15]: 1 (50.0) n (%)
Median PFS [2, 16]: 1.4 months
Response, NE [2, 16]: 0 (0.0) n (%)
Response, PD [2, 16]: 1 (100) n (%)
Median PFS [2, 17]: 1.3 months
Response, NE [2, 17]: 0 (0.0) n (%)
Response, PD [2, 17]: 1 (100) n (%)
Median PFS [2, 18]: 1.4 months
Response, NE [2, 18]: 0 (0.0) n (%)
Response, PD [2, 18]: 2(100.0) n (%)
Median PFS [2, 19]: 1.4 months
Response, NE [2, 19]: 1 (14.3) n (%)
Response, PD [2, 19]: 5 (71.4) n (%)
Median PFS [2, 20]: 4.1 months
Response, NE [2, 20]: 0 (0.0) n (%)
Response, PD [2, 20]: 1 (50.0) n (%)
Response, SD at wk 6 [2, 20]: 1 (50.0) n (%)
Median PFS [2, 21]: 10.3 months
Response, NE [2, 21]: 0 (0.0) n (%)
Response, PD [2, 21]: 0 (0.0) n (%)
Response, SD at wk 6 [2, 21]: 2 (100.0) n (%)
Median PFS [2, 22]: 1.4 months
Response, NE [2, 22]: 0 (0.0) n (%)
Response, PD [2, 22]: 2(100.0) n (%)
Response, SD at wk 6 [2, 22]: 0 (0.0) n (%)
Median PFS [2, 23]: 2.8 months
Response, NE [2, 23]: 0 (0.0) n (%)
Response, PD [2, 23]: 0 (0.0) n (%)
